What was measured:
Experiment in all cases: relative viability (nuclei count vs DMSO), 5 days (fraction); higher = more cells survive
Crizotinib + Lapatinib = compound: C[C@@H](Oc1cc(-c2cnn(C3CCNCC3)c2)cnc1N)c1c(Cl)ccc(F)c1Cl [Crizotinib] + CS(=O)(=O)CCNCc1ccc(-c2ccc3ncnc(Nc4ccc(OCc5cccc(F)c5)c(Cl)c4)c3c2)o1 [Lapatinib] (partner 2 µM)
Method in brief: (§1)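 Relative viability was taken as the ratio of nuclei in treated wells to nuclei in vehicle wells. Lung cancer cell lines in 1536-well plates received compounds by pin tool one day after seeding, either one drug alone or a fixed anchor-drug dose plus five library-drug doses (not always all listed) in √10 steps. Nuclei were counted on 4× images after 5 days of treatment, and values are medians of duplicate plates.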

Olaparib + AZD7762 = compound: O=C(c1cc(Cc2n[nH]c(=O)c3ccccc23)ccc1F)N1CCN(C(=O)C2CC2)CC1 [Olaparib] + NC(=O)Nc1cc(-c2cccc(F)c2)sc1C(=O)N[C@H]1CCCNC1 [AZD7762] (partner 0.2 µM)
Method in brief: as §1

Olaparib + OSI-027 = compound: O=C(c1cc(Cc2n[nH]c(=O)c3ccccc23)ccc1F)N1CCN(C(=O)C2CC2)CC1 [Olaparib] + COc1cccc2cc(-c3nc([C@H]4CC[C@H](C(=O)O)CC4)n4ncnc(N)c34)[nH]c12 [OSI-027] (partner 0.5 µM)
Method in brief: as §1

Carfilzomib + Vorinostat = compound: CC(C)C[C@H](NC(=O)[C@H](CCc1ccccc1)NC(=O)CN1CCOCC1)C(=O)N[C@@H](Cc1ccccc1)C(=O)N[C@@H](CC(C)C)C(=O)[C@@]1(C)CO1 [Carfilzomib] + O=C(CCCCCCC(=O)Nc1ccccc1)NO [Vorinostat] (partner 1 µM)
Method in brief: as §1

Cell Line | relative viability (Crizotinib + Lapatinib; first compound 0.01 µM) | relative viability (Crizotinib + Lapatinib; first compound 0.03162 µM) | relative viability (Crizotinib + Lapatinib; first compound 0.1 µM) | relative viability (Crizotinib + Lapatinib; first compound 0.3162 µM) | relative viability (Olaparib + AZD7762; first compound 0.08 µM) | relative viability (Olaparib + AZD7762; first compound 0.253 µM) | relative viability (Olaparib + AZD7762; first compound 2.53 µM) | relative viability (Olaparib + AZD7762; first compound 8 µM) | relative viability (Olaparib + OSI-027; first compound 0.08 µM) | relative viability (Olaparib + OSI-027; first compound 0.253 µM) | relative viability (Olaparib + OSI-027; first compound 2.53 µM) | relative viability (Olaparib + OSI-027; first compound 8 µM) | relative viability (Carfilzomib + Vorinostat; first compound 0.001 µM) | relative viability (Carfilzomib + Vorinostat; first compound 0.003162 µM) | relative viability (Carfilzomib + Vorinostat; first compound 0.01 µM) | relative viability (Carfilzomib + Vorinostat; first compound 0.03162 µM) | relative viability (Carfilzomib + Vorinostat; first compound 0.1 µM) | relative viability (Crizotinib + Lapatinib; first compound 1 µM)
LK-2 | 0.953 | 0.852 | 0.819 | 0.867 | 0.351 | 0.394 | 0.348 | 0.471 | 0.2 | 0.193 | 0.189 | 0.175 | 0.257 | 0.345 | 0.177 | 0.189 | 0.175 | –
LOU-NH91 | 0.738 | 0.731 | 0.677 | 0.57 | 0.838 | 0.739 | 0.789 | 0.761 | 0.764 | 0.638 | 0.764 | 0.729 | 1.03 | 1.03 | 0.443 | 0.302 | 0.328 | 0.712
LU99A | 0.824 | 1.02 | 0.976 | 1.03 | 0.337 | 0.213 | 0.204 | 0.125 | 0.31 | 0.274 | 0.288 | 0.258 | 0.467 | 0.649 | 0.404 | 0.225 | 0.167 | 0.928
LXF-289 | 0.902 | 0.886 | 0.925 | 0.779 | 1.27 | 1.02 | 1.28 | 1.17 | 0.955 | 0.761 | 0.759 | 0.755 | 0.747 | 0.795 | 0.738 | 0.0661 | 0.101 | 0.872
NCI-H23 | 1.12 | 1.03 | 1.09 | – | 0.3 | 0.269 | 0.269 | 0.147 | 0.8 | 0.58 | 0.465 | 0.367 | 0.506 | 0.656 | 0.195 | 0.118 | 0.0962 | 1.18
NCI-H322M | 0.478 | 0.642 | 0.616 | 0.584 | 0.724 | 0.608 | 0.521 | 0.496 | 0.713 | 0.523 | 0.518 | 0.456 | 0.796 | 0.898 | 0.952 | 0.788 | 0.38 | 0.701
NCI-H358 | 0.392 | 0.447 | 0.445 | 0.382 | 0.574 | 0.522 | 0.495 | 0.382 | 0.648 | 0.727 | 0.727 | 0.588 | 0.69 | 0.692 | 0.515 | 0.0656 | 0.0773 | 0.483
NCI-H460 | 0.977 | 1.24 | 0.983 | 0.94 | 0.595 | 0.513 | 0.357 | 0.126 | 0.677 | 0.643 | 0.434 | 0.215 | 0.743 | 0.661 | 0.68 | 0.093 | 0.0182 | 0.982
NCI-H596 | 1.02 | 1.12 | 1.02 | 1.02 | 1.19 | 0.981 | 1.04 | 0.703 | 0.718 | 0.782 | 0.718 | 0.642 | 0.585 | 0.612 | 0.448 | 0.173 | 0.159 | 1.24
NCI-H647 | – | 1.1 | 1.23 | 0.792 | 0.508 | 0.379 | 0.343 | 0.156 | 0.701 | 0.596 | 0.688 | 0.482 | 0.69 | 0.483 | 0.137 | 0.0309 | 0.0228 | 1.07
NCI-H650 | 0.833 | 0.788 | 0.909 | 0.803 | 1.05 | 0.956 | 0.826 | 0.927 | 0.631 | 0.498 | 0.5 | 0.414 | 0.354 | 0.468 | 0.532 | 0.132 | 0.107 | 0.891
NCI-H727 | 0.837 | 0.749 | 1.15 | 0.729 | 0.509 | 0.706 | 0.626 | 0.676 | 0.91 | 0.619 | 0.546 | 0.471 | 0.999 | 1.14 | 1.45 | 1.01 | 0.651 | 0.888
NCI-H838 | 0.689 | 1.22 | – | 0.996 | 1.09 | 0.949 | 0.912 | 0.801 | 0.417 | 0.367 | 0.38 | 0.405 | 0.922 | 0.774 | 0.719 | 0.199 | 0.152 | 0.987
NCI-H1355 | – | 1.04 | 1.07 | 0.863 | 0.74 | 0.749 | 0.714 | 0.696 | 0.517 | 0.399 | 0.441 | 0.412 | 0.533 | 0.703 | 0.664 | 0.569 | 0.142 | 0.986
NCI-H1395 | 0.971 | 1.14 | 1 | 0.922 | 0.429 | 0.334 | 0.384 | 0.359 | 0.743 | 0.58 | 0.524 | 0.536 | – | 0.791 | 0.469 | 0.306 | 0.316 | 0.956
NCI-H1437 | 0.768 | 0.839 | 0.816 | 0.711 | 1.19 | 1.11 | 1.15 | 0.997 | 0.967 | 0.871 | 0.855 | 0.771 | 0.834 | 0.895 | 1.14 | 0.435 | 0.206 | 0.928
NCI-H1651 | 0.642 | 0.782 | 0.722 | 0.893 | 0.486 | 0.424 | 0.363 | 0.184 | 0.756 | 0.615 | 0.545 | 0.445 | 0.602 | 0.597 | 0.447 | 0.188 | 0.104 | 0.892

From the supplement of paper PMC10307832
